According to PubChem BioAssay (NCI):
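Each compound was tested at five concentrations against cells in 96-well plates for 48 hours. GI50: concentration for 50% inhibition of growth. TGI denotes the concentration required for complete inhibition of growth.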

How the values were obtained:
Assay in all cases: DTP human tumour cell line panel, 48 h
[1] = test system: SK-MEL-28 melanoma
[2] = test system: HS 578T breast
[3] = test system: COLO 205 colon
[4] = test system: OVCAR-8 ovarian
[5] = test system: HCT-15 colon
[6] = test system: HL-60(TB) leukemia
[7] = test system: UO-31 renal
[8] = test system: ACHN renal
[9] = test system: SF-539 CNS
[10] = test system: RXF 393 renal
[11] = test system: NCI-H226 lung
[12] = test system: NCI-H522 lung
[13] = test system: EKVX NSCLC
[14] = test system: OVCAR-4 ovarian
[15] = test system: K-562 leukemia
[16] = test system: BT-549 breast
[17] = test system: HCT-116 colon
[18] = test system: HOP-62 NSCLC
[19] = test system: HOP-92 NSCLC
[20] = test system: A549 NSCLC
[21] = test system: LOX IMVI melanoma
[22] = test system: MDA-MB-231 breast
[23] = test system: M14 melanoma
[24] = test system: U251 CNS
[25] = test system: SR leukemia
[26] = test system: MDA-MB-435
[27] = test system: HT29 colon
[28] = test system: KM12 colon
[29] = test system: SK-MEL-5 melanoma
[30] = test system: A498 renal
[31] = test system: RPMI-8226 leukemia
[32] = test system: SF-295 CNS
[33] = test system: SW-620 colon
[34] = test system: UACC-257 melanoma
[35] = test system: SK-OV-3 ovarian
[36] = test system: UACC-62 melanoma
[37] = test system: SNB-19 CNS
[38] = test system: MALME-3M melanoma
[39] = test system: CAKI-1 renal
[40] = test system: IGROV1 ovarian
[41] = test system: NCI/ADR-RES ovarian
[42] = test system: SNB-75 CNS
[43] = test system: SN12C renal
[44] = test system: NCI-H460 lung
[45] = test system: 786-0 renal
[46] = test system: TK-10 renal
[47] = test system: OVCAR-5 ovarian
[48] = test system: PC-3 prostate
[49] = test system: HCC-2998 colon
[50] = test system: DU-145 prostate
[51] = test system: MCF7 breast
[52] = test system: SF-268 CNS
[53] = test system: SK-MEL-2 melanoma

For `COc1cccc(N2CCN(C3=C(Cl)C(=O)c4ncccc4C3=O)CC2)c1`, which GI50 [1] is on record?
Its GI50 is 3.3 µM.

And the TGI [1]?
Its TGI is 9.58 µM.

What about the GI50 [2] of the same molecule?
Its GI50 is 10 µM.

What about the TGI [2] of the same molecule?
The TGI was 51.5 µM.

And the GI50 [3]?
The GI50 was 1870 nM.

What about the TGI [3] of the same molecule?
The TGI was 4.01 µM.

And the GI50 [4]?
The GI50 was 2000 nM.

And the TGI [4]?
The TGI was 5.01 µM.

What about the GI50 [5] of the same molecule?
Its GI50 is 2050 nM.

And the TGI [5]?
Its TGI is 5.6 µM.

What about the GI50 [6] of the same molecule?
Its GI50 is 1750 nM.

What about the TGI [6] of the same molecule?
The TGI was 4.47 µM.

And the GI50 [7]?
The GI50 was 1640 nM.

And the TGI [7]?
Its TGI is 3.4 µM.

What about the GI50 [8] of the same molecule?
The GI50 was 1760 nM.

And the TGI [8]?
The TGI was 3.19 µM.

And the GI50 [9]?
The GI50 was 11.4 µM.

What about the TGI [9] of the same molecule?
Its TGI is 23.6 µM.

What about the GI50 [10] of the same molecule?
The GI50 was 1770 nM.

And the TGI [10]?
The TGI was 3.25 µM.

What about the GI50 [11] of the same molecule?
Its GI50 is 14 µM.

And the TGI [11]?
The TGI was 31.9 µM.

And the GI50 [12]?
Its GI50 is 1730 nM.

What about the TGI [12] of the same molecule?
The TGI was 3.39 µM.

And the GI50 [13]?
The GI50 was 2050 nM.

And the TGI [13]?
Its TGI is 4.42 µM.

What about the GI50 [14] of the same molecule?
Its GI50 is 1730 nM.

What about the TGI [14] of the same molecule?
The TGI was 3.26 µM.

And the GI50 [15]?
The GI50 was 2300 nM.

What about the TGI [15] of the same molecule?
Its TGI is 6.28 µM.

And the GI50 [16]?
The GI50 was 6.75 µM.

What about the TGI [16] of the same molecule?
Its TGI is 18.3 µM.

What about the GI50 [17] of the same molecule?
The GI50 was 1730 nM.

And the TGI [17]?
Its TGI is 3.18 µM.

And the GI50 [18]?
The GI50 was 18.5 µM.

What about the TGI [18] of the same molecule?
Its TGI is 33.2 µM.

What about the GI50 [19] of the same molecule?
The GI50 was 1630 nM.

And the TGI [19]?
The TGI was 3.07 µM.

What about the GI50 [20] of the same molecule?
Its GI50 is 15.5 µM.

What about the TGI [20] of the same molecule?
Its TGI is 33 µM.

What about the GI50 [21] of the same molecule?
The GI50 was 1620 nM.

And the TGI [21]?
Its TGI is 3.12 µM.

And the GI50 [22]?
Its GI50 is 1680 nM.

And the TGI [22]?
Its TGI is 3.2 µM.

And the GI50 [23]?
Its GI50 is 3.27 µM.

And the TGI [23]?
Its TGI is 13 µM.

And the GI50 [24]?
Its GI50 is 5.46 µM.

And the TGI [24]?
The TGI was 19.5 µM.

And the GI50 [25]?
Its GI50 is 1800 nM.

And the TGI [25]?
Its TGI is 5.38 µM.

And the GI50 [26]?
Its GI50 is 1790 nM.

And the TGI [26]?
Its TGI is 3.34 µM.

What about the GI50 [27] of the same molecule?
The GI50 was 12.2 µM.

And the TGI [27]?
Its TGI is 28.6 µM.

And the GI50 [28]?
The GI50 was 20.3 µM.

What about the TGI [28] of the same molecule?
Its TGI is 41.7 µM.

What about the GI50 [29] of the same molecule?
Its GI50 is 11.5 µM.

And the TGI [29]?
The TGI was 23.8 µM.

And the GI50 [30]?
Its GI50 is 13.5 µM.

What about the TGI [30] of the same molecule?
Its TGI is 26.4 µM.

What about the GI50 [31] of the same molecule?
The GI50 was 2270 nM.

What about the TGI [31] of the same molecule?
The TGI was 5.92 µM.

And the GI50 [32]?
Its GI50 is 12.5 µM.

And the TGI [32]?
Its TGI is 26.2 µM.

What about the GI50 [33] of the same molecule?
Its GI50 is 1640 nM.

What about the TGI [33] of the same molecule?
Its TGI is 3.32 µM.

And the GI50 [34]?
The GI50 was 2120 nM.

And the TGI [34]?
The TGI was 5.23 µM.

And the GI50 [35]?
Its GI50 is 15.4 µM.

What about the TGI [35] of the same molecule?
Its TGI is 46.2 µM.

And the GI50 [36]?
Its GI50 is 3.48 µM.

What about the TGI [36] of the same molecule?
The TGI was 12.3 µM.

What about the GI50 [37] of the same molecule?
Its GI50 is 16.2 µM.

And the TGI [37]?
Its TGI is 32.9 µM.

What about the GI50 [38] of the same molecule?
Its GI50 is 1840 nM.

What about the TGI [38] of the same molecule?
Its TGI is 4.06 µM.

And the GI50 [39]?
The GI50 was 2640 nM.

And the TGI [39]?
Its TGI is 8.15 µM.

And the GI50 [40]?
The GI50 was 2930 nM.

What about the TGI [40] of the same molecule?
The TGI was 9.52 µM.

And the GI50 [41]?
The GI50 was 3.36 µM.

What about the TGI [41] of the same molecule?
Its TGI is 15.5 µM.

What about the GI50 [42] of the same molecule?
The GI50 was 11.8 µM.

And the TGI [42]?
The TGI was 24.7 µM.

What about the GI50 [43] of the same molecule?
The GI50 was 5.19 µM.

What about the TGI [43] of the same molecule?
Its TGI is 20.2 µM.

And the GI50 [44]?
The GI50 was 7.26 µM.

And the TGI [44]?
The TGI was 26.7 µM.

And the GI50 [45]?
Its GI50 is 5.02 µM.

What about the TGI [45] of the same molecule?
The TGI was 16.3 µM.

And the GI50 [46]?
The GI50 was 4.18 µM.

And the TGI [46]?
The TGI was 13.2 µM.

And the GI50 [47]?
Its GI50 is 15.4 µM.

What about the TGI [47] of the same molecule?
The TGI was 30.3 µM.

And the GI50 [48]?
Its GI50 is 8.55 µM.

What about the TGI [48] of the same molecule?
Its TGI is 22.3 µM.

What about the GI50 [49] of the same molecule?
Its GI50 is 12.1 µM.

And the TGI [49]?
Its TGI is 25.5 µM.

What about the GI50 [50] of the same molecule?
The GI50 was 11.1 µM.

And the TGI [50]?
The TGI was 23.1 µM.

What about the GI50 [51] of the same molecule?
The GI50 was 1980 nM.

And the TGI [51]?
The TGI was 5.86 µM.

What about the GI50 [52] of the same molecule?
The GI50 was 13.1 µM.

What about the TGI [52] of the same molecule?
The TGI was 29.6 µM.

What about the GI50 [53] of the same molecule?
The GI50 was 6.25 µM.

What about the TGI [53] of the same molecule?
The TGI was 19.3 µM.
